From PubChem BioAssay (NCI) come the findings set out here.

Some test systems named below: UACC-257 melanoma; HL-60(TB) leukemia; SN12C renal; KM12 colon; A498 renal; UACC-62 melanoma; NCI-H226 lung; SF-539 CNS; RXF 393 renal; MALME-3M melanoma.
What all share (experiment): inhibition of tumour cell growth, NCI panel, 48 h

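Compound exposure: 48 hours, 5 concentrations, 96-well plates. GI50: concentration for 50% inhibition of growth. TGI denotes the concentration required for complete inhibition of growth.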

Regarding `CC1=C(CCCOC(=O)[C@H](N)CC(C)C)C2=C(C)C3(CC3)[C@@](C)(O)C(=O)C2=C1`, the GI50 in the test on UACC-257 melanoma was 2.53 µM; with HL-60(TB) leukemia, 2.01 µM; in the test on SN12C renal, 2.6 µM; with KM12 colon, 7.66 µM; in the test on A498 renal it was 1.68 µM; in the test on UACC-62 melanoma, 1.75 µM. For the same compound, the GI50 was 1.89 µM in the test on NCI-H226 lung, 1.61 µM in the test on SF-539 CNS, 0.492 µM in the test with RXF 393 renal and 1.44 µM in the test on MALME-3M melanoma. For the same compound, the TGI in the test on UACC-257 melanoma is 6.06 µM; in the test with HL-60(TB) leukemia, 13.2 µM; in the test with SN12C renal it was greater than 100 µM; in the test with KM12 colon it was greater than 100 µM; in the test on A498 renal it was 3.66 µM; with UACC-62 melanoma, 3.75 µM. In addition, the TGI in the test with NCI-H226 lung came out at 6.95 µM; in the test with SF-539 CNS, 4.25 µM; in the test on RXF 393 renal, 1.29 µM; in the test with MALME-3M melanoma it was 3.31 µM.
Consider `Cn1cc(C2=C(c3ccsc3)C(=O)NC2=O)c2ccccc21`, for which the GI50 is greater than 25 µM in the test on UACC-257 melanoma; greater than 25 µM with HL-60(TB) leukemia; greater than 25 µM in the test on SN12C renal; greater than 25 µM with KM12 colon; 12.1 µM with A498 renal; greater than 25 µM with UACC-62 melanoma. In addition, the GI50 is greater than 22.6 µM in the test on NCI-H226 lung, 24.2 µM in the test on SF-539 CNS, 24.4 µM in the test on RXF 393 renal and greater than 25 µM in the test on MALME-3M melanoma. Moreover, the TGI in the test on UACC-257 melanoma, with HL-60(TB) leukemia, in the test on SN12C renal, with KM12 colon, in the test with A498 renal and with UACC-62 melanoma was greater than 25 µM each time. Also, the TGI with NCI-H226 lung, in the test on SF-539 CNS, with RXF 393 renal and in the test with MALME-3M melanoma was greater than 25 µM throughout.
In the case of `COc1ccc(C(=O)C(C(=O)CCC(=O)Nc2ccc(Cl)c(Cl)c2)c2ccc(OC)cc2)cc1` (stereo not given), the TGI in the test with UACC-257 melanoma, with HL-60(TB) leukemia, with SN12C renal, in the test on KM12 colon, in the test with A498 renal and in the test with UACC-62 melanoma was greater than 100 µM in each case. For the same compound, the TGI in the test on NCI-H226 lung, with SF-539 CNS, in the test with RXF 393 renal and in the test on MALME-3M melanoma was greater than 100 µM throughout.
With `C/C(=C\C(=O)O[C@H]1[C@@H]2[C@H](C)CC[C@H]2[C@]2(C)O[C@@]1(C1CCCCC1)C[C@H]2OC(=O)CO)c1ccccc1`, the GI50 with UACC-257 melanoma was 6.96 µM; in the test with HL-60(TB) leukemia, 5.04 µM; in the test on SN12C renal, 0.0228 µM; in the test on KM12 colon, 6.44 µM; in the test with A498 renal it was 0.0164 µM; with UACC-62 melanoma, 6.62 µM. For the same compound, the GI50 in the test on NCI-H226 lung was 5.98 µM; in the test with SF-539 CNS, 7.1 µM; in the test on RXF 393 renal, 0.0798 µM; in the test on MALME-3M melanoma it was 7.25 µM. The TGI in the test on UACC-257 melanoma stood at 13.3 µM; in the test on HL-60(TB) leukemia, 13.1 µM; in the test with SN12C renal, 7.18 µM; with KM12 colon it was 13 µM; in the test on A498 renal, 0.114 µM; in the test with UACC-62 melanoma it was 12.4 µM. The TGI was found to be 12.3 µM with NCI-H226 lung, 13.2 µM in the test with SF-539 CNS, 7.12 µM in the test with RXF 393 renal and 13.5 µM in the test with MALME-3M melanoma.
Consider `O=C1NN2CC(c3ccccc3)=NN=C2c2ccccc21`, for which the GI50 with UACC-257 melanoma was 59.1 µM; in the test on HL-60(TB) leukemia, 19.9 µM; in the test with SN12C renal, 29.1 µM; in the test with KM12 colon it was 31.9 µM; in the test with A498 renal it was 87.5 µM; in the test with UACC-62 melanoma, 22.6 µM. Further, the GI50 is 22.8 µM in the test with NCI-H226 lung, 25.8 µM in the test on SF-539 CNS, 23 µM with RXF 393 renal and 32.1 µM in the test with MALME-3M melanoma. In addition, the TGI in the test with UACC-257 melanoma was greater than 100 µM; in the test with HL-60(TB) leukemia, 56.8 µM; in the test with SN12C renal it was 78.3 µM; in the test on KM12 colon, greater than 100 µM; in the test on A498 renal it was greater than 100 µM; in the test with UACC-62 melanoma, 49.5 µM. The TGI with NCI-H226 lung came out at 57.8 µM; in the test on SF-539 CNS it was 56.8 µM; in the test with RXF 393 renal it was 48.4 µM; with MALME-3M melanoma, 87.6 µM.
On to `O=C(/C=C/c1ccccc1)NC1C=Nc2ccc([N+](=O)[O-])cc2NC1=O` (stereo not given), for which the TGI was greater than 100 µM in the test on UACC-257 melanoma; greater than 100 µM with HL-60(TB) leukemia; greater than 100 µM in the test on SN12C renal; 86.7 µM in the test with KM12 colon; greater than 100 µM with A498 renal; greater than 100 µM with UACC-62 melanoma. For the same compound, the TGI in the test with NCI-H226 lung, with SF-539 CNS, in the test with RXF 393 renal and in the test with MALME-3M melanoma was greater than 100 µM throughout.
For `CC(C)=CC[C@@H]1CC2(CC=C(C)C)C(=O)C(OC3(C(=O)c4ccccc4)C(=O)C4(CC=C(C)C)C[C@@H](CC=C(C)C)C(C)(C)C(CC=C(C)C)(C4=O)C3=O)(C(=O)c3ccccc3)C(=O)C(CC=C(C)C)(C2=O)C1(C)C` (stereo not given in full), the GI50 is 1.4 µM with UACC-257 melanoma; 1.06 µM with HL-60(TB) leukemia; 1.54 µM in the test with SN12C renal; 1.65 µM in the test with KM12 colon; 1.01 µM in the test with A498 renal; 0.878 µM in the test with UACC-62 melanoma. For the same compound, the GI50 was 1.34 µM in the test with NCI-H226 lung, 1.14 µM with SF-539 CNS, 1.13 µM in the test with RXF 393 renal and 0.901 µM in the test with MALME-3M melanoma. The TGI in the test on UACC-257 melanoma was found to be 3.77 µM; in the test with HL-60(TB) leukemia, 2.44 µM; with SN12C renal, 5.67 µM; in the test with KM12 colon it was 6.13 µM; in the test with A498 renal it was 2.09 µM; with UACC-62 melanoma, 1.98 µM. Besides, the TGI is 3.9 µM with NCI-H226 lung, 2.65 µM with SF-539 CNS, 2.69 µM in the test with RXF 393 renal and 2.18 µM in the test with MALME-3M melanoma.
For the compound `C[N+]1([O-])C2CCC1CC(OC(=O)C(CO)c1ccccc1)C2` (stereo not given), the TGI in the test with UACC-257 melanoma, in the test with HL-60(TB) leukemia, in the test with SN12C renal, in the test on KM12 colon, in the test on A498 renal and in the test with UACC-62 melanoma was greater than 100 µM in each case. In addition, the TGI in the test on NCI-H226 lung, with SF-539 CNS, with RXF 393 renal and in the test with MALME-3M melanoma was greater than 100 µM throughout.
